Values quoted from earlier work as cited in US20060128641A1, “Levamisole, avermectins or similar in pyrrolidone solvent” (priority 2002, published 2006).

Columns and labels:
Cooperia = conditions: background table, cattle parasites
Ostertagia = conditions: background table, cattle parasites
[1] = previously found
[2] = background

pH required for stability [1]: less than 4 | solubility in water [2]: water soluble
SMILES: c1ccc([C@H]2CN3CCSC3=N2)cc1 [Levamisole]
Cooperia Efficacy (Cooperia): Good | Ostertagia Efficacy (Ostertagia): Poor
